According to ChEMBL document CHEMBL1201862, “PubChem BioAssay data set” (2004):
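Following 48 hours of exposure in 96-well plates, responses at five concentrations were used to interpolate endpoints linearly. The concentration for 50% growth inhibition is given as GI50.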 Calls of active or inactive are those of the source. Rule as the data show it: active = GI50 up to about 1.1 µM and inactive = higher.

Experiments:
Experiment in all cases: DTP human tumour cell line panel, 48 h
[1] = system: A549
[2] = system: HT-29
[3] = system: IGROV-1
[4] = system: KM12
[5] = system: MOLT-4
[6] = system: Malme-3M
[7] = system: NCI-H226
[8] = system: NCI-H522
[9] = system: OVCAR-3
[10] = system: OVCAR-5
[11] = system: SF-268
[12] = system: SK-MEL-2
[13] = system: SN12C
[14] = system: SNB-75
[15] = system: SR
[16] = system: TK-10
[17] = system: UACC-62
[18] = system: UO-31
[19] = system: MDA-MB-231
[20] = system: MDA-MB-435

Measured: GI50

CSC(=S)NNC(=O)c1ccncc1
inactive: [1] 61.4 µM | [2] 18.2 µM | [3] 14.6 µM | [4] 40.7 µM | [5] 23.2 µM | [6] 18.8 µM | [7] 18.2 µM | [8] 16.9 µM | [9] 21.4 µM | [10] 23.9 µM | [11] 21.6 µM | [12] 17.4 µM | [13] 21.4 µM | [14] 17.5 µM | [15] 14.6 µM | [16] 26.7 µM | [17] 16.5 µM | [18] 17.8 µM

CC1=CC(C)(C)NN1C1=NS(=O)(=O)c2ccccc2N1C
inactive: [1] > 100 µM | [2] > 100 µM | [3] > 100 µM | [4] > 100 µM | [19] > 100 µM | [20] > 100 µM | [5] 47.9 µM | [7] > 100 µM | [8] > 100 µM | [9] > 100 µM | [10] > 100 µM | [11] > 100 µM | [12] > 100 µM | [13] > 100 µM | [16] > 100 µM | [17] > 100 µM | [18] 78.3 µM

O=C(/C=C/c1ccc(OCCCOc2ccc(/C=C/C(=O)c3ccc(Cl)cc3)cc2)cc1)c1ccc(Cl)cc1
inactive: [1] > 100 µM | [2] > 100 µM | [3] > 100 µM | [4] > 100 µM | [5] > 100 µM | [6] > 100 µM | [7] > 100 µM | [8] > 100 µM | [9] > 100 µM | [10] > 100 µM | [11] > 100 µM | [12] > 100 µM | [13] > 100 µM | [14] 34.6 µM | [15] > 100 µM | [16] > 100 µM | [17] > 100 µM

[O-][n+]1c2cc3c(cc2[n+]([O-])c2c(O)cccc21)CN(CCN1CCOCC1)C3
inactive: [1] 34.9 µM | [2] 16 µM | [3] 12.7 µM | [4] 16.8 µM | [5] 4.43 µM | [6] 48.9 µM | [7] 41.9 µM | [8] 5.36 µM | [9] 18.7 µM | [10] 38 µM | [11] 11.2 µM | [12] 20.7 µM | [13] 29 µM | [14] 89.1 µM | [15] 2.48 µM | [16] 27.4 µM | [17] 24.8 µM | [18] 10.6 µM

C/N=C1\OC2=C3C(c4ccccc4)(O/C(=N/C)N(C)C3(c3ccccc3)OC2=O)N1C (stereo unspecified)
inactive: [1] > 100 µM | [2] > 100 µM | [3] > 100 µM | [4] > 100 µM | [19] > 100 µM | [5] > 100 µM | [7] > 100 µM | [8] > 100 µM | [9] > 100 µM | [10] > 100 µM | [11] > 100 µM | [12] 23.7 µM | [13] > 100 µM | [14] 71.4 µM | [15] > 100 µM | [16] > 100 µM | [17] > 100 µM | [18] > 10 µM

O=C(/C=C1\Nc2ccccc2C(=O)N1c1ccccc1Cl)c1ccccc1
inactive: [1] 87.5 µM | [2] 64.7 µM | [3] > 100 µM | [4] 84.1 µM | [5] 76.4 µM | [6] > 100 µM | [7] > 100 µM | [8] > 100 µM | [9] 88.9 µM | [10] > 100 µM | [11] > 100 µM | [12] > 100 µM | [13] > 100 µM | [14] 32.7 µM | [15] > 100 µM | [16] > 100 µM | [17] > 100 µM | [18] > 100 µM

COc1cccc(NC(=O)C(C)(C)C)c1C=O
inactive: [1] 71.1 µM | [2] 40.7 µM | [3] 56.1 µM | [4] 42.3 µM | [5] 31 µM | [6] > 100 µM | [7] 33.4 µM | [8] 55.2 µM | [9] 37 µM | [10] 62.5 µM | [11] 47.5 µM | [12] 73.6 µM | [13] 63.1 µM | [14] 39.3 µM | [15] 26.5 µM | [16] 35 µM | [17] 74.3 µM | [18] 34.3 µM

CCN(CCN(CC)C(=O)Nc1ccccc1)C(=O)Nc1ccccc1
inactive: [1] > 100 µM | [2] > 100 µM | [3] > 100 µM | [19] > 100 µM | [5] > 100 µM | [6] > 100 µM | [7] > 100 µM | [8] > 100 µM | [10] > 100 µM | [11] > 100 µM | [12] > 100 µM | [13] > 100 µM | [14] > 100 µM | [15] > 100 µM | [16] > 100 µM | [17] > 100 µM | [18] > 100 µM

COc1cccc(NC(=O)C(=O)C2C=CCS2(=O)=O)c1 (stereo unspecified)
inactive: [1] > 100 µM | [2] > 100 µM | [3] > 100 µM | [4] > 100 µM | [5] > 100 µM | [6] > 100 µM | [7] > 100 µM | [8] > 100 µM | [9] > 100 µM | [10] > 100 µM | [11] > 100 µM | [12] > 100 µM | [13] > 100 µM | [14] 56 µM | [15] > 100 µM | [16] > 100 µM | [17] > 100 µM | [18] > 100 µM

C/C(=C\c1ccccn1)c1ccccn1
inactive: [1] > 100 µM | [2] > 100 µM | [3] > 100 µM | [4] > 100 µM | [19] > 100 µM | [20] > 100 µM | [5] > 100 µM | [6] > 100 µM | [8] > 100 µM | [9] > 100 µM | [10] > 100 µM | [11] > 100 µM | [12] > 100 µM | [14] > 100 µM | [16] > 100 µM | [17] > 100 µM | [18] > 100 µM

CC(C)=C/C=C1/CS(=O)(=O)C=C1C
inactive: [1] > 100 µM | [2] > 100 µM | [3] > 100 µM | [4] > 100 µM | [19] > 100 µM | [20] > 100 µM | [5] > 100 µM | [6] > 100 µM | [7] > 100 µM | [8] > 100 µM | [9] > 100 µM | [10] > 100 µM | [12] > 100 µM | [13] > 100 µM | [14] > 100 µM | [16] > 100 µM | [17] > 100 µM | [18] > 100 µM

Cc1csc2nc(-c3cccc([N+](=O)[O-])c3)c(/C=N/N=C(N)N)n12
inactive: [1] 1.72 µM | [2] 1.81 µM | [3] 1.81 µM | [4] 1.68 µM | [19] 1.55 µM | [20] 1.66 µM | [6] 1.72 µM | [7] 1.64 µM | [8] 1.83 µM | [9] 1.62 µM | [10] 1.63 µM | [11] 1.82 µM | [12] 1.77 µM | [13] 1.69 µM | [14] 1.75 µM | [16] 1.78 µM | [17] 1.46 µM | [18] 1.39 µM

Cc1cc(Br)cc(C)c1NC(=O)C(=O)C1C(=O)C(CC2C(=O)c3ccccc3C2=O)C(=O)CC1(C)C (stereo unspecified)
inactive: [1] 79.6 µM | [2] > 100 µM | [3] 29.9 µM | [4] > 100 µM | [19] 55 µM | [20] > 100 µM | [5] 18.1 µM | [7] 67.5 µM | [8] 44.5 µM | [9] > 100 µM | [10] > 100 µM | [11] > 100 µM | [12] > 100 µM | [13] > 100 µM | [14] > 100 µM | [16] > 100 µM | [17] 90.2 µM | [18] 16.8 µM

Cc1ccc(C)c(NC(=O)/C(=N\NC(N)=S)C(C#N)c2ccccc2)c1 (stereo unspecified)
inactive: [1] > 100 µM | [2] > 100 µM | [3] > 100 µM | [4] > 100 µM | [5] > 100 µM | [6] > 100 µM | [7] > 100 µM | [8] > 100 µM | [9] > 100 µM | [10] > 100 µM | [11] > 100 µM | [12] > 100 µM | [13] > 100 µM | [14] > 100 µM | [15] > 100 µM | [16] > 100 µM | [17] > 100 µM | [18] > 100 µM

CCOC(=O)C1CCCc2sc(N)c(C#N)c21 (stereo unspecified)
inactive: [1] > 100 µM | [2] > 100 µM | [3] > 100 µM | [4] > 100 µM | [19] > 100 µM | [5] > 100 µM | [6] > 100 µM | [7] > 100 µM | [10] > 100 µM | [12] > 100 µM | [13] > 100 µM | [14] > 100 µM | [15] > 100 µM | [16] > 100 µM | [17] > 100 µM | [18] > 100 µM

CN1c2ccccc2S(=O)(=O)n2c(COc3ccccc3)nnc21
inactive: [1] > 100 µM | [2] > 100 µM | [3] > 100 µM | [4] > 100 µM | [19] > 100 µM | [20] > 100 µM | [5] > 100 µM | [7] > 100 µM | [8] 56.8 µM | [9] > 100 µM | [10] > 100 µM | [11] > 100 µM | [12] > 100 µM | [13] > 100 µM | [16] > 100 µM | [17] > 100 µM | [18] > 100 µM
